In patent US5952321A, “Substituted azetidinones as anti-inflammatory and antidegenerative agents” (Merck & Co., Inc., priority 1996, dated 1999):
Where a name gives a salt, the structure may show the parent alone. Read-outs that look alike come from different tables or passages of the source.

Biological target: T1, Human Polymorphonuclear Leukocyte Elastase (Homo sapiens, UniProt P08246)
T1 sequence (P08246 30-267): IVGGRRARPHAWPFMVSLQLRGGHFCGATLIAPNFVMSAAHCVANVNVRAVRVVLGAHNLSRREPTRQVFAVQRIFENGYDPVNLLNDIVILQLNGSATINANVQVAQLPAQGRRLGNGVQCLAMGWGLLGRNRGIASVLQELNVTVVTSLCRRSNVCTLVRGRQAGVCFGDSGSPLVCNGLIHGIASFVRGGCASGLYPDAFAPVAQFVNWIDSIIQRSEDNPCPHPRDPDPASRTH
Experiment: Inhibition of human polymorphonuclear leukocyte elastase via hydrolysis of Boc-AAPAN or Boc-AAPVN
Assay type: biochemical
Settings: second order rate constant for inactivation of the enzyme, read-out: Kobs /[I]
Procedure: Enzyme Assays for the Inhibition of Human Polymorphonuclear Leukocyte Elastase Via Hydrolysis of N-t-Boc-alanyl-alanyl-prolylalanine-p-nitroanilide (Boc-AAPAN) or […] (Boc-AAPVN) Reagent:
0.05M TES (N-tris[hydroxymethyl]methyl-2-amino-ethanesulfonic acid) Buffer, pH 7.5.
0.2 mM Boc-AAPAN or Boc-AAPVN.
To prepare substrate, the solid was first dissolved in 10.0 ml DMSO. Buffer at pH 7.5 was then added to a final volume of 100 ml.
Crude extract of human polymorphonuclear leukocytes (PMN) containing elastase activity.
Inhibitors (azetidinones) to be tested dissolved in DMSO just before use.
To 1.0 ml of 0.2 mM Boc-AAPAN in a cuvette, 0.01-0.1 ml of DMSO with or without inhibitor was added. After mixing, a measurement was taken at 410 mμ to detect any spontaneous hydrolysis due to presence of test compound. 0.05 Milliliters of PMN extract was then added and the ΔOD/min at 410 mμ was measured and recorded. Beckman model 35 spectrophotometer was used.
Results in Tables I to III were reported as ID50, effective dosage in micrograms per milliliter (μg/ml) for 50% inhibition of the enzyme activity 2 minutes after zero time.
Results were also expressed as Ki, the micromolar concentration of the inhibitor (μM) giving 50% of the control enzyme activity; or as ^k obs/I which is the second order rate constant in per mole per second for inactivation of the enzyme.
The elastase activity in the crude PMN extract may vary from one preparation to another. A control of each new batch is run, and the volume added in the assay procedure is adjusted according to activity.

CCC[C@@H](NC(=O)N1C(=O)C(CC)(CC)[C@@H]1Oc1ccc(CNC(=O)Cc2ccncc2)cc1)c1ccc(C)cc1 [R4=H; R5=COCH2-4-pyridyl; R6=H, (4S)-3,3-Diethyl-1-[(R)-α-(n-propyl)-4-(methyl)benzylaminocarbonyl]-4-[(4-((4-pyridyl)methylcarbonyl)aminomethyl)phenoxy]azetidin-2-one]
kinact/KI (pH 7.5, Table I): 1.7e+06 M⁻¹ s⁻¹

CCC[C@@H](NC(=O)N1C(=O)C(CC)(CC)[C@@H]1Oc1ccc(CNC(=O)NCc2ccccc2)cc1)c1ccc(C)cc1 [R4=H; R5=CONH Bn; R6=H, (4S)-3,3-Diethyl-1-[(R)-α-(n-propyl)-4-(methyl)benzylaminocarbonyl]-4-[(4-((N-benzyl)aminocarbonyl)aminomethyl)phenoxy]azetidin-2-one]
kinact/KI (pH 7.5, Table I): 1.6e+06 M⁻¹ s⁻¹

CCC[C@@H](NC(=O)N1C(=O)C(CC)(CC)[C@@H]1Oc1ccc(CNC(=O)NC(C)C)cc1)c1ccc(C)cc1 [R4=H; R5=CONH isoPr; R6=H, (4S)-3,3-Diethyl-1-[(R)-α-(n-propyl)-4-(methyl)benzylaminocarbonyl]-4-[(4-((N-isopropyl)aminocarbonyl)aminomethyl)phenoxy]azetidin-2-one]
kinact/KI (pH 7.5, Table I): 1.1e+06 M⁻¹ s⁻¹

CCC[C@@H](NC(=O)N1C(=O)C(CC)(CC)[C@@H]1Oc1ccc(CNC(=O)NC)cc1)c1ccc(C)cc1 [R4=H; R5=CONHMe; R6=H, (4S)-3,3-Diethyl-1-[(R)-α-(n-propyl)-4-(methyl)benzylaminocarbonyl]-4-[(4-((N-methyl)aminocarbonyl)aminomethyl)phenoxy]azetidin-2-one]
kinact/KI (pH 7.5, Table I): 1.1e+06 M⁻¹ s⁻¹

CCCNC(=O)NCc1ccc(O[C@@H]2N(C(=O)N[C@H](CCC)c3ccc(C)cc3)C(=O)C2(CC)CC)cc1 [R4=H; R5=CONHnPr; R6=H, (4S)-3,3-Diethyl-1-[(R)-α-(n-propyl)-4-(methyl)benzylaminocarbonyl]-4-[(4-((N-propyl)aminocarbonyl)aminomethyl)phenoxy]azetidin-2-one]
kinact/KI (pH 7.5, Table I): 1.2e+06 M⁻¹ s⁻¹

CCC[C@@H](NC(=O)N1C(=O)C(CC)(CC)[C@@H]1Oc1ccc(CN)cc1)c1ccc(C)cc1 [R4=H; R5=H; R6=H, (4S)-3,3-Diethyl-1-[(R)-α-(n-propyl)-4-(methyl)benzylaminocarbonyl]-4-[(4-aminomethyl)phenoxy]azetidin-2-one]
kinact/KI (pH 7.5, Table I): 325000 M⁻¹ s⁻¹

CCC[C@@H](NC(=O)N1C(=O)C(CC)(CC)[C@@H]1Oc1ccc(CN(C)Cc2ccccc2)cc1)c1ccc(C)cc1 [R4=Me; R5=Bn; R6=H]
kinact/KI (pH 7.5, Table I): 400000 M⁻¹ s⁻¹

CCC[C@@H](NC(=O)N1C(=O)C(CC)(CC)[C@@H]1Oc1ccc(CCN(C)Cc2ccccc2)cc1)c1ccc(C)cc1 [R4=Me; R5=Bn; n=2, (4S)-3,3-Diethyl-1-[(R)-α-n-propyl-(4-methyl)benzylaminocarbonyl]-4-[(4-(2-benzylmethylamino)ethyl)phenoxy]azetidin-2-one]
kinact/KI (pH 7.5, Table II): 1.32e+06 M⁻¹ s⁻¹

CCC[C@@H](NC(=O)N1C(=O)C(CC)(CC)[C@@H]1Oc1ccc(CCCCN(C)Cc2ccccc2)cc1)c1ccc(C)cc1 [R4=Me; R5=Bn; n=4]
kinact/KI (pH 7.5, Table II): 640000 M⁻¹ s⁻¹

CCC[C@@H](NC(=O)N1C(=O)C(CC)(CC)[C@@H]1Oc1ccc(CN(C)CCCOC(=O)N(C)C)cc1)c1ccc(C)cc1 [R4=Me; R5=CH2 CH2 CH2 OCONMe2; R6=H]
kinact/KI (pH 7.5, Table I): 2.1e+06 M⁻¹ s⁻¹

CCC[C@@H](NC(=O)N1C(=O)C(CC)(CC)[C@@H]1Oc1ccc(CN(C)CCCOC)cc1)c1ccc(C)cc1 [R4=Me; R5=CH2 CH2 CH2 OMe; R6=H]
kinact/KI (pH 7.5, Table I): 1.5e+06 M⁻¹ s⁻¹

CCC[C@@H](NC(=O)N1C(=O)C(CC)(CC)[C@@H]1Oc1ccc(CN(C)CCC(=O)O)cc1)c1ccc(C)cc1 [R4=Me; R5=CH2 CH2 CO2 H--TFA; R6=H]
kinact/KI (pH 7.5, Table I): 440000 M⁻¹ s⁻¹

CCC[C@@H](NC(=O)N1C(=O)C(CC)(CC)[C@@H]1Oc1ccc(CN(C)CCC(=O)N(C)C)cc1)c1ccc(C)cc1 [R4=Me; R5=CH2 CH2 CONMe2; R6=H]
kinact/KI (pH 7.5, Table I): 870000 M⁻¹ s⁻¹

CCC[C@@H](NC(=O)N1C(=O)C(CC)(CC)[C@@H]1Oc1ccc(CN(C)CCN(C)C(C)=O)cc1)c1ccc(C)cc1 [R4=Me; R5=CH2 CH2 N(Me)Ac; R6=H]
kinact/KI (pH 7.5, Table I): 650000 M⁻¹ s⁻¹

CCC[C@@H](NC(=O)N1C(=O)C(CC)(CC)[C@@H]1Oc1ccc(CN(C)CCN(C)Cc2ccccc2)cc1)c1ccc(C)cc1 [R4=Me; R5=CH2 CH2 N(Me)Bn; R6=H]
kinact/KI (pH 7.5, Table I): 1.25e+06 M⁻¹ s⁻¹

CCC[C@@H](NC(=O)N1C(=O)C(CC)(CC)[C@@H]1Oc1ccc(CN(C)CCN(C)C(=O)N(C)C)cc1)c1ccc(C)cc1 [R4=Me; R5=CH2 CH2 N(Me)CONMe2; R6=H]
kinact/KI (pH 7.5, Table I): 850000 M⁻¹ s⁻¹

CCC[C@@H](NC(=O)N1C(=O)C(CC)(CC)[C@@H]1Oc1ccc(CN(C)CCN(C)C(=O)OC)cc1)c1ccc(C)cc1 [R4=Me; R5=CH2 CH2 N(Me)COOMe; R6=H]
kinact/KI (pH 7.5, Table I): 1.1e+06 M⁻¹ s⁻¹

CCC[C@@H](NC(=O)N1C(=O)C(CC)(CC)[C@@H]1Oc1ccc(CN(C)CCN(C)C)cc1)c1ccc(C)cc1 [R4=Me; R5=CH2 CH2 NMe2; R6=H]
kinact/KI (pH 7.5, Table I): 850000 M⁻¹ s⁻¹

CCC[C@@H](NC(=O)N1C(=O)C(CC)(CC)[C@@H]1Oc1ccc(CCN(C)CCN(C)C)cc1)c1ccc(C)cc1 [R4=Me; R5=CH2 CH2 NMe2; n=2, (4S)-3,3-Diethyl-1-[(R)-α-n-propyl-(4-methyl)benzylaminocarbonyl]-4-[(4-(2-((2-dimethylamino)ethyl)methylamino)ethyl)phenoxy]azetidin-2-one]
kinact/KI (pH 7.5, Table II): 1.2e+06 M⁻¹ s⁻¹

CCC[C@@H](NC(=O)N1C(=O)C(CC)(CC)[C@@H]1Oc1ccc(CN(C)CCOCCOC)cc1)c1ccc(C)cc1 [R4=Me; R5=CH2 CH2 OCH2 CH2 OMe; R6=H]
kinact/KI (pH 7.5, Table I): 1.9e+06 M⁻¹ s⁻¹

CCC[C@@H](NC(=O)N1C(=O)C(CC)(CC)[C@@H]1Oc1ccc(C(C)N(C)CCOCCOC)cc1)c1ccc(C)cc1 (stereo partly drawn) [R4=Me; R5=CH2 CH2 OCH2 CH2 OMe; R6=Me]
kinact/KI (pH 7.5, Table I): 825000 M⁻¹ s⁻¹

CCC[C@@H](NC(=O)N1C(=O)C(CC)(CC)[C@@H]1Oc1ccc(CN(C)CCOC(=O)C(C)C)cc1)c1ccc(C)cc1 [R4=Me; R5=CH2 CH2 OCOCHMe2; R6=H]
kinact/KI (pH 7.5, Table I): 630000 M⁻¹ s⁻¹

CCC[C@@H](NC(=O)N1C(=O)C(CC)(CC)[C@@H]1Oc1ccc(CN(C)CCOC(=O)C(C)(C)C)cc1)c1ccc(C)cc1 [R4=Me; R5=CH2 CH2 OCOCMe3; R6=H]
kinact/KI (pH 7.5, Table I): 230000 M⁻¹ s⁻¹

CCCCN(C)C(=O)OCCN(C)Cc1ccc(O[C@@H]2N(C(=O)N[C@H](CCC)c3ccc(C)cc3)C(=O)C2(CC)CC)cc1 [R4=Me; R5=CH2 CH2 OCON(Me)n-Bu; R6=H]
kinact/KI (pH 7.5, Table I): 1.3e+06 M⁻¹ s⁻¹

CCC[C@@H](NC(=O)N1C(=O)C(CC)(CC)[C@@H]1Oc1ccc(CN(C)CCOC(=O)N(CC)CC)cc1)c1ccc(C)cc1 [R4=Me; R5=CH2 CH2 OCONEt2; R6=H]
kinact/KI (pH 7.5, Table I): 1.23e+06 M⁻¹ s⁻¹

CCC[C@@H](NC(=O)N1C(=O)C(CC)(CC)[C@@H]1Oc1ccc(CN(C)CCOC(=O)NC(C)C)cc1)c1ccc(C)cc1 [R4=Me; R5=CH2 CH2 OCONH(i-Pr); R6=H]
kinact/KI (pH 7.5, Table I): 1.85e+06 M⁻¹ s⁻¹

CCC[C@@H](NC(=O)N1C(=O)C(CC)(CC)[C@@H]1Oc1ccc(CN(C)CCOC(=O)NC)cc1)c1ccc(C)cc1 [R4=Me; R5=CH2 CH2 OCONHMe; R6=H]
kinact/KI (pH 7.5, Table I): 700000 M⁻¹ s⁻¹

CCC[C@@H](NC(=O)N1C(=O)C(CC)(CC)[C@@H]1Oc1ccc(CN(C)CCOC(=O)N(C)C)cc1)c1ccc(C)cc1 [R4=Me; R5=CH2 CH2 OCONMe2; R6=H, (4S)-3,3-Diethyl-1-[(R)-α-n-propyl-(4-methyl)benzylaminocarbonyl]-4-[(4-((2-dimethylaminocarbonyloxy)ethyl)methylaminomethyl)phenoxy]azetidin-2-one]
kinact/KI (pH 7.5, Table I): 610000 M⁻¹ s⁻¹

CCC[C@@H](NC(=O)N1C(=O)C(CC)(CC)[C@@H]1Oc1ccc(C(C)N(C)CCOC(=O)N(C)C)cc1)c1ccc(C)cc1 (stereo partly drawn) [R4=Me; R5=CH2 CH2 OCONMe2; R6=Me]
kinact/KI (pH 7.5, Table I): 925000 M⁻¹ s⁻¹

CCC[C@@H](NC(=O)N1C(=O)C(CC)(CC)[C@@H]1Oc1ccc(CN(C)CCOCC)cc1)c1ccc(C)cc1 [R4=Me; R5=CH2 CH2 OEt; R6=H, (4S)-3,3-Diethyl-1-[(R)-α-n-propyl-(4-methyl)benzylaminocarbonyl]-4-[(4-(2-ethoxyethyl)methylaminomethyl)phenoxy]azetidin-2-one]
kinact/KI (pH 7.5, Table I): 600000 M⁻¹ s⁻¹

CCC[C@@H](NC(=O)N1C(=O)C(CC)(CC)[C@@H]1Oc1ccc(CN(C)CCO)cc1)c1ccc(C)cc1 [R4=Me; R5=CH2 CH2 OH; R6=H]
kinact/KI (pH 7.5, Table I): 560000 M⁻¹ s⁻¹

CCC[C@@H](NC(=O)N1C(=O)C(CC)(CC)[C@@H]1Oc1ccc(C(C)N(C)CCO)cc1)c1ccc(C)cc1 (stereo partly drawn) [R4=Me; R5=CH2 CH2 OH; R6=Me]
kinact/KI (pH 7.5, Table I): 770000 M⁻¹ s⁻¹

CCC[C@@H](NC(=O)N1C(=O)C(CC)(CC)[C@@H]1Oc1ccc([C@@H](C)N(C)CCOC)cc1)c1ccc(C)cc1 [R4=Me; R5=CH2 CH2 OMe; R6=(R)--Me, (4S)-3,3-diethyl-4-{(R)-4-[1-((2-methoxyethyl)methylamino)ethyl]phenoxy}-1-[(R)-α-n-propyl-(4-methyl)benzylaminocarbonyl]azetidin-2-one]
kinact/KI (pH 7.5, Table I): 525000 M⁻¹ s⁻¹
